Assay results as given in patent US20260209250A1, “CRYSTAL FORM OF KRAS G12D INHIBITOR AND PREPARATION METHOD THEREFOR” (priority 2022, published 2026).

How the values were obtained:
[1] = Long-term/accelerated stability; assay type: physicochemical
[2] = Crystal form stability study (influencing factor experiments); assay type: physicochemical; conditions: for Physical and chemical properties (conclusion of influencing factor experiments): high temperatures and high humidities for 30 days
Procedure: Samples of the crystal forms A, B, C, I, J, and K of the compound represented by formula (I) were taken, spread in open containers, and left to stand under conditions of light exposure (4500 Lux), high temperatures (40° C. and 60° C.), and high humidities (RH 75% and RH 92.5%) for 30 days to investigate their stability, and the results are shown in Table 16.

[3] = 40° C., 10 days, open container
[4] = 40° C., 30 days, open container
[5] = 60° C., 10 days, open container
[6] = 60° C., 30 days, open container
[7] = 75% RH, 10 days, open container
[8] = 75% RH, 30 days, open container
[9] = 92.5% RH, 5 days, open container
[10] = 92.5% RH, 10 days, open container
[11] = 92.5% RH, 30 days, open container
[12] = light exposure (4500 Lux), 5 days, open container
[13] = light exposure (4500 Lux), 10 days, open container
[14] = light exposure (4500 Lux), 30 days, open container

Compound: CCc1c(F)ccc2cc(O)cc(-c3nc4c5c(nc(OC[C@@]67CCCN6C[C@H](F)C7)nc5c3F)N3C[C@H]5CC[C@H](N5)[C@H]3CO4)c12 [Crystal form I, 5-Ethyl-6-fluoro-4-((5aS,6S,9R)-1-fluoro-12-(((2R,7aS)-2-fluorotetrahydro-1H-pyrrolizin-7a(5H)-yl)methoxy)-5a,6,7,8,9,10-hexahydro-5H-4-oxa-3,10a,11,13,14-pentaaza-6,9-methanonaphtho[1,8-ab]heptalen-2-yl)naphthalen-2-ol]
- Purity % 1 month ([1]; 25° C./60% RH): 99.6%
- Purity % 2 months ([1]; 25° C./60% RH): 99.6%
- Purity % 3 months ([1]; 25° C./60% RH): 99.6%
- Purity % Initial ([1]; 25° C./60% RH): 99.6%
- Purity % 1 month ([1]; 40° C./75% RH): 99.6%
- Purity % 2 months ([1]; 40° C./75% RH): 99.4%
- Purity % 3 months ([1]; 40° C./75% RH): 99.6%
- Purity % Initial ([1]; 40° C./75% RH): 99.6%
- Color and state ([2]; 40° C., 5 days, open container): Off-white solid
- Crystal form ([2]; 40° C., 5 days, open container): Did not change
- Purity % ([2]; 40° C., 5 days, open container): 99.6%
- Color and state [2, 3]: Off-white solid
- Crystal form [2, 3]: Did not change
- Purity % [2, 3]: 99.4%
- Color and state [2, 4]: Off-white solid
- Crystal form [2, 4]: Did not change
- Purity % [2, 4]: 99.3%
- Color and state ([2]; 60° C., 5 days, open container): Off-white solid
- Crystal form ([2]; 60° C., 5 days, open container): Did not change
- Purity % ([2]; 60° C., 5 days, open container): 99.6%
- Color and state [2, 5]: Off-white solid
- Crystal form [2, 5]: Did not change
- Purity % [2, 5]: 99.4%
- Color and state [2, 6]: Off-white solid
- Crystal form [2, 6]: Did not change
- Purity % [2, 6]: 99.3%
- Color and state ([2]; 75% RH, 5 days, open container): Off-white solid
- Crystal form ([2]; 75% RH, 5 days, open container): Did not change
- Purity % ([2]; 75% RH, 5 days, open container): 99.6%
- Color and state [2, 7]: Off-white solid
- Crystal form [2, 7]: Did not change
- Purity % [2, 7]: 99.6%
- Color and state [2, 8]: Off-white solid
- Crystal form [2, 8]: Did not change
- Purity % [2, 8]: 99.6%
- Color and state [2, 9]: Off-white solid
- Crystal form [2, 9]: Did not change
- Purity % [2, 9]: 99.5%
- Color and state [2, 10]: Off-white solid
- Crystal form [2, 10]: Did not change
- Purity % [2, 10]: 99.5%
- Color and state [2, 11]: Off-white solid
- Crystal form [2, 11]: Did not change
- Purity % [2, 11]: 99.6%
- Color and state ([2]; Initial, 0 days): Off-white solid
- Crystal form ([2]; Initial, 0 days): Crystal form I
- Purity % ([2]; Initial, 0 days): 99.6%
- Physical and chemical properties (conclusion of influencing factor experiments) [2]: good physical and chemical properties
- Color and state [2, 12]: Off-white solid
- Crystal form [2, 12]: Did not change
- Purity % [2, 12]: 99.6%
- Color and state [2, 13]: Off-white solid
- Crystal form [2, 13]: Did not change
- Purity % [2, 13]: 99.5%
- Color and state [2, 14]: Off-white solid
- Crystal form [2, 14]: Did not change
- Purity % [2, 14]: 99.2%

Compound: CCc1c(F)ccc2cc(O)cc(-c3nc4c5c(nc(OC[C@@]67CCCN6C[C@H](F)C7)nc5c3F)N3C[C@H]5CC[C@H](N5)[C@H]3CO4)c12 [Crystal form J, 5-Ethyl-6-fluoro-4-((5aS,6S,9R)-1-fluoro-12-(((2R,7aS)-2-fluorotetrahydro-1H-pyrrolizin-7a(5H)-yl)methoxy)-5a,6,7,8,9,10-hexahydro-5H-4-oxa-3,10a,11,13,14-pentaaza-6,9-methanonaphtho[1,8-ab]heptalen-2-yl)naphthalen-2-ol]
- Purity % 1 month ([1]; 25° C./60% RH): 99.5%
- Purity % 2 months ([1]; 25° C./60% RH): 99.6%
- Purity % 3 months ([1]; 25° C./60% RH): 99.6%
- Purity % Initial ([1]; 25° C./60% RH): 99.6%
- Purity % 1 month ([1]; 40° C./75% RH): 99.4%
- Purity % 2 months ([1]; 40° C./75% RH): 99.3%
- Purity % 3 months ([1]; 40° C./75% RH): 99.2%
- Purity % Initial ([1]; 40° C./75% RH): 99.6%
- Color and state ([2]; 40° C., 5 days, open container): Off-white solid
- Crystal form ([2]; 40° C., 5 days, open container): Did not change
- Purity % ([2]; 40° C., 5 days, open container): 99.2%
- Color and state [2, 3]: Off-white solid
- Crystal form [2, 3]: Did not change
- Purity % [2, 3]: 98.8%
- Color and state [2, 4]: Off-white solid
- Crystal form [2, 4]: Did not change
- Purity % [2, 4]: 97.9%
- Color and state ([2]; 60° C., 5 days, open container): Off-white solid
- Crystal form ([2]; 60° C., 5 days, open container): Did not change
- Purity % ([2]; 60° C., 5 days, open container): 99.1%
- Color and state [2, 5]: Off-white solid
- Crystal form [2, 5]: Did not change
- Purity % [2, 5]: 98.5%
- Color and state [2, 6]: Off-white solid
- Crystal form [2, 6]: Did not change
- Purity % [2, 6]: 97.4%
- Color and state ([2]; 75% RH, 5 days, open container): Off-white solid
- Crystal form ([2]; 75% RH, 5 days, open container): Did not change
- Purity % ([2]; 75% RH, 5 days, open container): 99.6%
- Color and state [2, 7]: Off-white solid
- Crystal form [2, 7]: Did not change
- Purity % [2, 7]: 99.6%
- Color and state [2, 8]: Off-white solid
- Crystal form [2, 8]: Did not change
- Purity % [2, 8]: 99.5%
- Color and state [2, 9]: Off-white solid
- Crystal form [2, 9]: Did not change
- Purity % [2, 9]: 99.6%
- Color and state [2, 10]: Off-white solid
- Crystal form [2, 10]: Did not change
- Purity % [2, 10]: 99.5%
- Color and state [2, 11]: Off-white solid
- Crystal form [2, 11]: Did not change
- Purity % [2, 11]: 99.5%
- Color and state ([2]; Initial, 0 days): Off-white solid
- Crystal form ([2]; Initial, 0 days): Crystal form J
- Purity % ([2]; Initial, 0 days): 99.6%
- Physical and chemical properties (conclusion of influencing factor experiments) [2]: good physical and chemical properties
- Color and state [2, 12]: Off-white solid
- Crystal form [2, 12]: Did not change
- Purity % [2, 12]: 98.1%
- Color and state [2, 13]: Pale yellow solid
- Crystal form [2, 13]: Did not change
- Purity % [2, 13]: 95.5%
- Color and state [2, 14]: Pale yellow solid
- Crystal form [2, 14]: Did not change
- Purity % [2, 14]: 93.0%

Compound: CCc1c(F)ccc2cc(O)cc(-c3nc4c5c(nc(OC[C@@]67CCCN6C[C@H](F)C7)nc5c3F)N3C[C@H]5CC[C@H](N5)[C@H]3CO4)c12 [Crystal form K, 5-Ethyl-6-fluoro-4-((5aS,6S,9R)-1-fluoro-12-(((2R,7aS)-2-fluorotetrahydro-1H-pyrrolizin-7a(5H)-yl)methoxy)-5a,6,7,8,9,10-hexahydro-5H-4-oxa-3,10a,11,13,14-pentaaza-6,9-methanonaphtho[1,8-ab]heptalen-2-yl)naphthalen-2-ol]
- Purity % 1 month ([1]; 25° C./60% RH): 99.7%
- Purity % 2 months ([1]; 25° C./60% RH): 99.8%
- Purity % 6 months ([1]; 25° C./60% RH): 99.7%
- Purity % Initial ([1]; 25° C./60% RH): 99.8%
- Purity % 1 month ([1]; 40° C./75% RH): 99.7%
- Purity % 2 months ([1]; 40° C./75% RH): 99.7%
- Purity % 6 months ([1]; 40° C./75% RH): 99.4%
- Purity % Initial ([1]; 40° C./75% RH): 99.8%
- Color and state ([2]; 40° C., 5 days, open container): Off-white solid
- Crystal form ([2]; 40° C., 5 days, open container): Did not change
- Purity % ([2]; 40° C., 5 days, open container): 99.2%
- Color and state [2, 3]: Off-white solid
- Crystal form [2, 3]: Did not change
- Purity % [2, 3]: 98.5%
- Color and state [2, 4]: Off-white solid
- Crystal form [2, 4]: Did not change
- Purity % [2, 4]: 97.0%
- Color and state ([2]; 60° C., 5 days, open container): Off-white solid
- Crystal form ([2]; 60° C., 5 days, open container): Did not change
- Purity % ([2]; 60° C., 5 days, open container): 99.1%
- Color and state [2, 5]: Off-white solid
- Crystal form [2, 5]: Did not change
- Purity % [2, 5]: 98.5%
- Color and state [2, 6]: Off-white solid
- Crystal form [2, 6]: Did not change
- Purity % [2, 6]: 97.0%
- Color and state ([2]; 75% RH, 5 days, open container): Off-white solid
- Crystal form ([2]; 75% RH, 5 days, open container): Did not change
- Purity % ([2]; 75% RH, 5 days, open container): 99.8%
- Color and state [2, 7]: Off-white solid
- Crystal form [2, 7]: Did not change
- Purity % [2, 7]: 99.7%
- Color and state [2, 8]: Off-white solid
- Crystal form [2, 8]: Did not change
- Purity % [2, 8]: 99.7%
- Color and state [2, 9]: Off-white solid
- Crystal form [2, 9]: Did not change
- Purity % [2, 9]: 99.8%
- Color and state [2, 10]: Off-white solid
- Crystal form [2, 10]: Did not change
- Purity % [2, 10]: 99.7%
- Color and state [2, 11]: Off-white solid
- Crystal form [2, 11]: Did not change
- Purity % [2, 11]: 99.7%
- Color and state ([2]; Initial, 0 days): Off-white solid
- Crystal form ([2]; Initial, 0 days): Crystal form K
- Purity % ([2]; Initial, 0 days): 99.8%
- Physical and chemical properties (conclusion of influencing factor experiments) [2]: good physical and chemical properties
- Color and state [2, 12]: Off-white solid
- Crystal form [2, 12]: Did not change
- Purity % [2, 12]: 99.3%
- Color and state [2, 13]: Off-white solid
- Crystal form [2, 13]: Did not change
- Purity % [2, 13]: 98.9%
- Color and state [2, 14]: Off-white solid
- Crystal form [2, 14]: Did not change
- Purity % [2, 14]: 97.9%
